Laboratory results published in US20160106802A1, “METHODS OF DIAGNOSING AND TREATING ASTHMA” (Alba Therapeutics Corporation, priority 2006, published 2016).
“Also recorded” adds a separate entry of the source. Ends that are not written are not given here.

Test system: zonulin receptor
Assay: In situ immunofluorescence microscopy of lung tissue sections with FITC-labeled peptides
Assay type: binding
Details: mouse lung sections (4 μm, frozen blocks) incubated with FITC-labeled peptide; FIG. 1
Method: In situ immunofluorescence microscopy was used to establish the distribution of the zonulin receptor within the respiratory tract. Lung tissue sections (4 μm) made from frozen blocks were placed immediately on plain uncoated slides and incubated with either FITC-labeled FZI/0 (the zonulin synthetic peptide inhibitor that specifically binds to the zonulin receptor described in U.S. Pat. No. 6,458,925, Gly-Gly-Val-Leu-Val-Gln-Pro-Gly SEQ ID NO: 15) or FITC-labeled FZI/1 (a scrambled peptide described in U.S. Pat. No. 6,458,925, Val-Gly-Val-Leu-Gly-Arg-Pro-Gly SEQ ID NO: 25) The results are shown in FIG. 1.

Sequence | immunofluorescence signal of FITC-labeled peptide bound to lung tissue sections
GGVLVQPG [FZI/0] | Clusters of immunofluorescent FZI/0 particles were visualized; also recorded: Cluster of immunofluorescence FZI/0 particles were visualized
VGVLGRPG [FZI/1, a scrambled peptide described in U.S. Pat. No. 6,458,925, reference compound] | no signal was detected
